Assay results published in patent US4886806A, “Flavone-3-carboxylic acids compounds and pharmaceutical compositions containing them” (Kali-Chemie Pharma GmbH, priority 1987, dated 1989).

How the values were obtained:
[1] = system: oxygen radical-forming activity of activated peritoneal exudate cells (PEC) of mice; test: Peak chemiluminescence (CL) test: inhibition of oxygen radical liberation from activated peritoneal exudate cells; assay type: cell-based; details: Mus musculus, 10^-4 Mol substance/l, added at peak of cell activity, read-out: Inhibition in vitro of the oxygen radical liberation, Chemiluminescence Test % inhibition, Pk. CL
Procedure: 1. To determine the inhibiting effect on the oxygen radical-forming activity of inflamed cells, the in vitro inhibition of the release of oxygen radicals from activated peritoneal exudate cells (=PEC) of mice was determined in the chemiluminescence (CL) test according to the method of Mueller-Peddinghaus (Int. J. Immunopharmac. 6, 455-466 (1984)). […] The intensity of the chemiluminescence is a measurement of the oxygen radical content in the suspension and thus the degree of activity of the inflamed cells. In this, three functionally different parameters are detected, the spontaneous CL, the induced CL and the peak CL. The spontaneous CL and the induced CL on the one hand and the peak CL on the other hand differ from each other because in the first two parameters the test substances are in contact with the cells for a 30 minute preincubation period before the inflammation irritant is added, whereas with the peak CL the cells are first stimulated, and the test substance is added at the peak of their activity. The measurement of the spontaneous CL thus detects the influence of the test substance on the relative rest activity of inflamed cells, the induced CL represents the effect of the test substances on the activatability of the cells and the inhibition of the peak CL indicates the effect of the test substances on the maximum activity of the inflamed cells. 1.1 Production of PEC suspension used in the test. In order to induce the PEC formation, female mice of 20-25 g body weight were each injected i.p. with 2 ml of a 3% solution of thioglycollate in sterile isotonic sodium chloride solution. Twenty four hours after the thioglycollate injection the cells, which predominantly consisted of polymorphonuclear leucocytes, were recovered by washing out of the abdominal cavity and washed twice. As cell culture medium there was added a commercially available solution under the designation RPMI 1640 (pH 7.2) (produced by Flow Laboratories, […], Germany), which contains 10% fetal calf serum (FCS, produced by Seromed GmbH, Munich, Germany) 18 μmol/l sodium bicarbonate and 2 μmol/l L-glutamine. The cell pellets of four animals each time were resuspended in cell culture medium, collected together and the suspension was made up to 2×10^6 cells per ml with cell culture medium. The cell suspensions were kept under ice cooling until their use the same day. 1.2 Production of the complement opsonized zymosan (=ZyC3 b) suspension used for activation. 200 mg zymosan (glycoprotein mixture isolated from the cell walls of brewer's yeast, Sacchomyces […], produced by Sigma Chemical Co., Munich, Germany) were suspended in 10 ml phosphate buffer solution according to Dulbecco (produced by Flow Laboratories, […], Germany), well stirred and heated for thirty minutes in a water bath to 100° C. After cooling, it was centrifuged for five minutes at 4° C. and at 600 ×g and the supernatant was discarded. The sediment was resuspended in 50 ml human serum and incubated for thirty minutes at 37° C. in a shaking water bath. Then it was centrifuged for five minutes at 600 ×g and 420 C., the supernatant decanted and the sediment washed with phosphate buffer solution. The working suspension of 8×10^-3 g ZyC3 b/ml was produced from the sediment by dilution with phosphate buffer solution (Mueller-Peddinghaus et al., Zbl. Vet. Med. B. 30, 559-575). 1.3 Chemiluminescence (CL) measurement (Peak-CL). The PEC suspension was divided into samples of 100 μl each, placed in test tubes, and these were incubated for ten minutes at a temperature of 3720 C. in a measurement device (Chemiluminescence analyzer, Laboratorium Prof. Berthold, Wildbad, Germany). Then in order to amplify the chemiluminescence, 100 μl lucigenin solution was added (final concentration 1.54×10^-4 mol/l) and incubated for 16 more minutes. The cells were then activated by the addition of 100 μl of the ZyC3 b suspension produced as described in section 1.2 plus 100 μl phosphate buffer solution. […]

[2] = system: oxygen radical-forming activity of peritoneal exudate cells (PEC) of mice; test: Spontaneous CL and induced CL chemiluminescence test: inhibition of oxygen radical liberation from peritoneal exudate cells (30 min preincubation); assay type: cell-based; parameters: concentration or dose not given beside the values; details: for Inhibition in vitro of the oxygen radical liberation, Chemiluminescence Test % inhibition, Ind. CL: induced CL, after ZyC3b activation; for Inhibition in vitro of the oxygen radical liberation, Chemiluminescence Test % inhibition, Spnt. CL: spontaneous CL, before ZyC3b
Procedure: 1. To determine the inhibiting effect on the oxygen radical-forming activity of inflamed cells, the in vitro inhibition of the release of oxygen radicals from activated peritoneal exudate cells (=PEC) of mice was determined in the chemiluminescence (CL) test according to the method of Mueller-Peddinghaus (Int. J. Immunopharmac. 6, 455-466 (1984)). […] The intensity of the chemiluminescence is a measurement of the oxygen radical content in the suspension and thus the degree of activity of the inflamed cells. In this, three functionally different parameters are detected, the spontaneous CL, the induced CL and the peak CL. The spontaneous CL and the induced CL on the one hand and the peak CL on the other hand differ from each other because in the first two parameters the test substances are in contact with the cells for a 30 minute preincubation period before the inflammation irritant is added, whereas with the peak CL the cells are first stimulated, and the test substance is added at the peak of their activity. The measurement of the spontaneous CL thus detects the influence of the test substance on the relative rest activity of inflamed cells, the induced CL represents the effect of the test substances on the activatability of the cells and the inhibition of the peak CL indicates the effect of the test substances on the maximum activity of the inflamed cells. 1.1 Production of PEC suspension used in the test. In order to induce the PEC formation, female mice of 20-25 g body weight were each injected i.p. with 2 ml of a 3% solution of thioglycollate in sterile isotonic sodium chloride solution. Twenty four hours after the thioglycollate injection the cells, which predominantly consisted of polymorphonuclear leucocytes, were recovered by washing out of the abdominal cavity and washed twice. As cell culture medium there was added a commercially available solution under the designation RPMI 1640 (pH 7.2) (produced by Flow Laboratories, […], Germany), which contains 10% fetal calf serum (FCS, produced by Seromed GmbH, Munich, Germany) 18 μmol/l sodium bicarbonate and 2 μmol/l L-glutamine. The cell pellets of four animals each time were resuspended in cell culture medium, collected together and the suspension was made up to 2×10^6 cells per ml with cell culture medium. The cell suspensions were kept under ice cooling until their use the same day. 1.2 Production of the complement opsonized zymosan (=ZyC3 b) suspension used for activation. 200 mg zymosan (glycoprotein mixture isolated from the cell walls of brewer's yeast, Sacchomyces […], produced by Sigma Chemical Co., Munich, Germany) were suspended in 10 ml phosphate buffer solution according to Dulbecco (produced by Flow Laboratories, […], Germany), well stirred and heated for thirty minutes in a water bath to 100° C. After cooling, it was centrifuged for five minutes at 4° C. and at 600 ×g and the supernatant was discarded. The sediment was resuspended in 50 ml human serum and incubated for thirty minutes at 37° C. in a shaking water bath. Then it was centrifuged for five minutes at 600 ×g and 420 C., the supernatant decanted and the sediment washed with phosphate buffer solution. The working suspension of 8×10^-3 g ZyC3 b/ml was produced from the sediment by dilution with phosphate buffer solution (Mueller-Peddinghaus et al., Zbl. Vet. Med. B. 30, 559-575). 1.3 Chemiluminescence (CL) measurement (Peak-CL). […] At the end of this preincubation phase, 100 μl lucigenin were added, and in the course of the subsequent sixteen minute incubation phase the spontaneous CL parameter was determined with two measuring points. Then 100 μl ZyC3 b+100 μl phosphate buffer were added, and during the course of the subsequent twenty-four minute cell activation the induced CL parameter was measured with three measuring points. All measurements were determined twice. The parameters spontaneous CL and induced CL were determined on the same day with two separate cell pools.

male mice = test: Determination of the minimum toxic dose; assay type: in vivo; details: max. dose 300 mg/kg, 24 h
Procedure: 3. Determination of the minimum toxic dose.
Male mice of 20 to 25 g weight were given maximal doses of 300 mg/kg of test substance per os. The animals were carefully watched over a period of three hours for toxicity symptoms. Over a period of twenty-four hours after administration, all symptoms and deaths were recorded. Associated symptoms were also watched and recorded. If death or strongly toxic symptoms were noted, further mice were given increasingly lower doses. The lowest dose which brought about death or strongly toxic symptoms was reported as the minimum toxic dose.

[3] = system: carrageenin foot edema in male Wistar rats; test: Inhibition of carrageenin foot edema in rats (Winter et al.); assay type: in vivo; details: Rattus norvegicus, 2 h after irritant
Procedure: A similar volume of isotonic sodium chloride solution was injected in the left hind foot. The volume of the each rat's foot was measured plethysmometrically both before and two hours after administration of the irritant, and the swelling of the foot volume after the carrageenin application was compared to the foot which was treated only with sodium chloride solution The inhibition of edema formation by the test substances in the treated animals was compared in percentage terms with the animals of the untreated control group.

O=C(c1c(-c2ccccc2)oc2ccccc2c1=O)N1CC[N+]([O-])(Cc2ccccc2)CC1 [Example 5, 3-[(4-benzylpiperazin-1-yl)-carbonyl]-flavone N-oxide]
inhibition at 100 µM (stock) [1]: 12% | Inhibition in vitro of the oxygen radical liberation, Chemiluminescence Test % inhibition, Ind. CL [2]: 25% | Inhibition in vitro of the oxygen radical liberation, Chemiluminescence Test % inhibition, Spnt. CL [2]: 49% | Minimal toxic dose mg/kg mouse p.o. (male mice): > 300 mg/kg

COc1cc(-c2oc3ccccc3c(=O)c2C(=O)NCCCCN2CCN(c3ccccn3)CC2)cc(OC)c1OC [Example 6b, 3',4',5'-Trimethoxy-3-{4-[4-(2-pyridyl)-piperazin-1-yl]-butylaminocarbonyl}flavone]
inhibition in vivo at 215 µmol/kg ([3]; ip, 215 μmol/kg i.p.): 75%

O=C(c1c(-c2cc(O)c(O)c(O)c2)oc2ccccc2c1=O)N1CCN(c2ccccn2)CC1 [Example 10b, 3',4',5'-Trihydroxy-3-{[4-(2-pyridyl)-piperazin-1-yl]-carbonyl}flavone]
inhibition in vivo at 215 µmol/kg ([3]; ip, 215 μmol/kg i.p.): 35% | inhibition in vivo at 215 µmol/kg ([3]; po, 215 μmol/kg p.o.): 30%

CN1CCN(C(=O)c2c(-c3ccccc3)oc3ccccc3c2=O)CC1 [Example 16a]
inhibition in vivo at 100 µmol/kg ([3]; po, 100 μmol/kg p.o.): 20%

O=C(NC1CCN(Cc2ccccc2)CC1)c1c(-c2ccccc2)oc2ccccc2c1=O [Example 18b]
inhibition at 100 µM (stock) [1]: 41% | Inhibition in vitro of the oxygen radical liberation, Chemiluminescence Test % inhibition, Ind. CL [2]: 50% | Inhibition in vitro of the oxygen radical liberation, Chemiluminescence Test % inhibition, Spnt. CL [2]: 30% | Minimal toxic dose mg/kg mouse p.o. (male mice): 300 mg/kg

O=C(NCCN1CCCC1)c1c(-c2ccccc2)oc2ccccc2c1=O [Example 20b]
inhibition at 100 µM (stock) [1]: 27% | Inhibition in vitro of the oxygen radical liberation, Chemiluminescence Test % inhibition, Ind. CL [2]: 43% | Inhibition in vitro of the oxygen radical liberation, Chemiluminescence Test % inhibition, Spnt. CL [2]: 72% | Minimal toxic dose mg/kg mouse p.o. (male mice): 100 mg/kg

CCN(CC)CCNC(=O)c1c(-c2ccccc2)oc2ccccc2c1=O [Example 22b]
inhibition at 100 µM (stock) [1]: 25% | Inhibition in vitro of the oxygen radical liberation, Chemiluminescence Test % inhibition, Ind. CL [2]: 43% | Inhibition in vitro of the oxygen radical liberation, Chemiluminescence Test % inhibition, Spnt. CL [2]: 67% | Minimal toxic dose mg/kg mouse p.o. (male mice): 300 mg/kg

O=C(NCCCCN1CCN(Cc2ccccc2)CC1)c1c(-c2ccccc2)oc2ccccc2c1=O [Example 23]
inhibition at 100 µM (stock) [1]: 63% | Inhibition in vitro of the oxygen radical liberation, Chemiluminescence Test % inhibition, Ind. CL [2]: 88% | Inhibition in vitro of the oxygen radical liberation, Chemiluminescence Test % inhibition, Spnt. CL [2]: 95% | Minimal toxic dose mg/kg mouse p.o. (male mice): 300 mg/kg

O=C(NCCCCN1CCN(c2ncccn2)CC1)c1c(-c2ccccc2)oc2ccccc2c1=O [Example 25]
inhibition in vivo at 215 µmol/kg ([3]; ip, 215 μmol/kg i.p.): 58% | inhibition in vivo at 215 µmol/kg ([3]; po, 215 μmol/kg p.o.): 25%

COc1ccc(-c2oc3ccccc3c(=O)c2C(=O)N2CCN(C)CC2)cc1 [Example 28]
inhibition at 100 µM (stock) [1]: 5% | Inhibition in vitro of the oxygen radical liberation, Chemiluminescence Test % inhibition, Ind. CL [2]: 29% | Inhibition in vitro of the oxygen radical liberation, Chemiluminescence Test % inhibition, Spnt. CL [2]: 54% | Minimal toxic dose mg/kg mouse p.o. (male mice): > 300 mg/kg

CCCCCCCCCCCCCCCCOc1ccc(-c2oc3ccccc3c(=O)c2C(=O)N2CCN(Cc3ccccc3)CC2)cc1 [Example 36]
inhibition in vivo at 215 µmol/kg ([3]; po, 215 μmol/kg p.o.): 30%

COc1cc(-c2oc3ccccc3c(=O)c2C(=O)NCCCN2CCOCC2)cc(OC)c1OC [Example 46]
inhibition at 100 µM (stock) [1]: 11% | Inhibition in vitro of the oxygen radical liberation, Chemiluminescence Test % inhibition, Ind. CL [2]: 25% | Inhibition in vitro of the oxygen radical liberation, Chemiluminescence Test % inhibition, Spnt. CL [2]: 52% | Minimal toxic dose mg/kg mouse p.o. (male mice): > 300 mg/kg

COc1cc(-c2oc3ccccc3c(=O)c2C(=O)OCCN2CCN(c3ccccn3)CC2)cc(OC)c1OC [Example 47]
inhibition at 100 µM (stock) [1]: 70% | Inhibition in vitro of the oxygen radical liberation, Chemiluminescence Test % inhibition, Ind. CL [2]: 76% | Inhibition in vitro of the oxygen radical liberation, Chemiluminescence Test % inhibition, Spnt. CL [2]: 78% | Minimal toxic dose mg/kg mouse p.o. (male mice): 100 mg/kg

COc1cc(-c2oc3ccccc3c(=O)c2C(=O)OCCN2CCCC2)cc(OC)c1OC [Example 49]
inhibition at 100 µM (stock) [1]: 41% | Inhibition in vitro of the oxygen radical liberation, Chemiluminescence Test % inhibition, Ind. CL [2]: 64% | Inhibition in vitro of the oxygen radical liberation, Chemiluminescence Test % inhibition, Spnt. CL [2]: 86% | Minimal toxic dose mg/kg mouse p.o. (male mice): 300 mg/kg

COc1cc(-c2oc3ccccc3c(=O)c2C(=O)NCCCC[N+]2([O-])CC[N+]([O-])(Cc3ccccc3)CC2)cc(OC)c1OC (centres unmarked) [Example 52]
inhibition in vivo at 215 µmol/kg ([3]; ip, 215 μmol/kg i.p.): 53%

CCC(=O)Oc1cc(-c2oc3ccccc3c(=O)c2C(=O)N2CCN(c3ccccn3)CC2)cc(OC(=O)CC)c1OC(=O)CC [Example 56]
inhibition at 100 µM (stock) [1]: 37% | Inhibition in vitro of the oxygen radical liberation, Chemiluminescence Test % inhibition, Ind. CL [2]: 70% | Inhibition in vitro of the oxygen radical liberation, Chemiluminescence Test % inhibition, Spnt. CL [2]: 52%
